# Assay results taken from ChEMBL document CHEMBL1208782, “Synthesis and pharmacological validation of a novel series of non-steroidal FXR agonists” (Bioorg Med Chem Lett, 2010).
# How the values were obtained:
# Type in all cases: functional, cell-based
# [1] = target: T1, Progesterone receptor (Homo sapiens) (UniProt P06401); assay: Agonist activity at progesterone receptor-LBD expressed in HEK293 cells assessed as Gal4-DBD interaction by cellular mammalian one hybrid assay relative to progesterone
# T1 sequence (whole entry): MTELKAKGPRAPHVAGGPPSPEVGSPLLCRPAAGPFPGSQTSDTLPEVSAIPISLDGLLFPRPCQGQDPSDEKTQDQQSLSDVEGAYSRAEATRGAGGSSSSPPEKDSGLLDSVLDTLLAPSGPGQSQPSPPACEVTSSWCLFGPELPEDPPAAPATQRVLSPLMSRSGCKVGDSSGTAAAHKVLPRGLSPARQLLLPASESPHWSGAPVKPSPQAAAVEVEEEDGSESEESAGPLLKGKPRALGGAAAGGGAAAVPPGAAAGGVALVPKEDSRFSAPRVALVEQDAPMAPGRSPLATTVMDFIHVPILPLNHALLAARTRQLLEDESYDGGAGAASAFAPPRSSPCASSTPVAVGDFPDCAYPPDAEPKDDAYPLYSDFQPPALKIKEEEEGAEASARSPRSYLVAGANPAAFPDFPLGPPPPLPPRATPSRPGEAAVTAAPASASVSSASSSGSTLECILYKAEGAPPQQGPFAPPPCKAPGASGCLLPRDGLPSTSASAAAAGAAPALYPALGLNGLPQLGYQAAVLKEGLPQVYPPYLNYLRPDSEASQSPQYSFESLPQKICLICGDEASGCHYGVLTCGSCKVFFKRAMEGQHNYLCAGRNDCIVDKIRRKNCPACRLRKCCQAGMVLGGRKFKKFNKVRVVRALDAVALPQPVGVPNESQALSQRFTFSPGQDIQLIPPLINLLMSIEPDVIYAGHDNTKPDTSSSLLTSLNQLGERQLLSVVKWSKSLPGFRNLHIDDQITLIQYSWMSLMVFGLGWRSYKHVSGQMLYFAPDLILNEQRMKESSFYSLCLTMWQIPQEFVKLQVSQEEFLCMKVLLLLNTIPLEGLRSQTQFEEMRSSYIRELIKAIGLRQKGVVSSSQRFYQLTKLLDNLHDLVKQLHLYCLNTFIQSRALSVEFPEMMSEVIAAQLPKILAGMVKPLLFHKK
# [2] = target: T2, PXR (nuclear receptor subfamily 1 group I member 2) (Homo sapiens, UniProt O75469); assay: Agonist activity at PXR-LBD expressed in HEK293 cells assessed as Gal4-DBD interaction by cellular mammalian one hybrid assay relative to SR-12813; details: HEK293 cells expressing PXR-LBD, read-out: Efficacy
# T2 sequence (O75469 whole entry): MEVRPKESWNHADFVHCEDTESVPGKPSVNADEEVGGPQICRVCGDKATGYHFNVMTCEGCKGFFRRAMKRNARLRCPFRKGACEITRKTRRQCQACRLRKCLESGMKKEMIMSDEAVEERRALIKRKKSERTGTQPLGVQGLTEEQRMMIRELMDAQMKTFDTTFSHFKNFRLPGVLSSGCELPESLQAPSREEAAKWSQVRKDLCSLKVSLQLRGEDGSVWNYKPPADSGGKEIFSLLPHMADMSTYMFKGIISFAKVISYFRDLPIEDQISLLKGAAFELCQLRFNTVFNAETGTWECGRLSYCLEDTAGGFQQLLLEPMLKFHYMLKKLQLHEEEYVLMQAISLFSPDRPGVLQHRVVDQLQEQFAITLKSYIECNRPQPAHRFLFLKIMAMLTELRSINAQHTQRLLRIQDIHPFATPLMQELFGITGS
# [3] = target: T3, CAR (nuclear receptor subfamily 1 group I member 3) (Homo sapiens, UniProt Q14994); assay: Agonist activity at CAR-LBD expressed in HEK293 cells assessed as Gal4-DBD interaction by cellular mammalian one hybrid assay relative to androstane; details: HEK293 cells expressing CAR-LBD, read-out: Efficacy
# T3 sequence (Q14994 whole entry): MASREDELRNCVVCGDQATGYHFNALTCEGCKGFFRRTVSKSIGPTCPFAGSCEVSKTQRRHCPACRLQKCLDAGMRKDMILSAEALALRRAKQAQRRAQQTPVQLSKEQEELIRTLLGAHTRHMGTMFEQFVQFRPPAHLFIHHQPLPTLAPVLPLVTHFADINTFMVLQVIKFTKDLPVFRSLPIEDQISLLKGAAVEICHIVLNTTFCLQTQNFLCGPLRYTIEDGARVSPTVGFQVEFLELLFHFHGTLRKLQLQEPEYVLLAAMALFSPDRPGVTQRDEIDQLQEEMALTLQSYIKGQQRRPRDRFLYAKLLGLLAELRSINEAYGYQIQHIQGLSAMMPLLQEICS
# Estrogen receptor beta = Estrogen receptor beta (Homo sapiens, UniProt Q92731); assay: Agonist activity at ERbeta-LBD expressed in HEK293 cells assessed as Gal4-DBD interaction by cellular mammalian one hybrid assay relative to estradiol
# [4] = target: T4, Retinoic acid receptor gamma (Homo sapiens) (UniProt P13631); assay: Agonist activity at RARgamma-LBD expressed in HEK293 cells assessed as Gal4-DBD interaction by cellular mammalian one hybrid assay relative to relative to retinoic acid
# T4 sequence (whole entry): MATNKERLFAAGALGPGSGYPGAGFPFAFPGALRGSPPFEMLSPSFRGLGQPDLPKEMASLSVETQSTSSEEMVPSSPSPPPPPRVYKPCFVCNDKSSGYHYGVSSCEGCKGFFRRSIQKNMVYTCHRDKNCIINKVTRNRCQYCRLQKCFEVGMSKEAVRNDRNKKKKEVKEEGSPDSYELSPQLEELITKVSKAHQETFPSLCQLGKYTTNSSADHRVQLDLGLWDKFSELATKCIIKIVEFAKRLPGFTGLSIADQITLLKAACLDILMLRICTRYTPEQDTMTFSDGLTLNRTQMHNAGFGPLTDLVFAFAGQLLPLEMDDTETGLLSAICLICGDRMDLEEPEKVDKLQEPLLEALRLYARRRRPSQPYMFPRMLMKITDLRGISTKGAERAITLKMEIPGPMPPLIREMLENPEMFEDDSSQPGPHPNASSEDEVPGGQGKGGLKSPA
# [5] = target: T5, Retinoic acid receptor gamma (Homo sapiens, UniProt P13631); assay: Agonist activity at RARgamma-LBD expressed in HEK293 cells assessed as Gal4-DBD interaction by cellular mammalian one hybrid assay
# T5 sequence (P13631 whole entry): T4 sequence (whole entry)
# Sequence of Estrogen receptor beta (Q92731 whole entry, the tested form may be a part): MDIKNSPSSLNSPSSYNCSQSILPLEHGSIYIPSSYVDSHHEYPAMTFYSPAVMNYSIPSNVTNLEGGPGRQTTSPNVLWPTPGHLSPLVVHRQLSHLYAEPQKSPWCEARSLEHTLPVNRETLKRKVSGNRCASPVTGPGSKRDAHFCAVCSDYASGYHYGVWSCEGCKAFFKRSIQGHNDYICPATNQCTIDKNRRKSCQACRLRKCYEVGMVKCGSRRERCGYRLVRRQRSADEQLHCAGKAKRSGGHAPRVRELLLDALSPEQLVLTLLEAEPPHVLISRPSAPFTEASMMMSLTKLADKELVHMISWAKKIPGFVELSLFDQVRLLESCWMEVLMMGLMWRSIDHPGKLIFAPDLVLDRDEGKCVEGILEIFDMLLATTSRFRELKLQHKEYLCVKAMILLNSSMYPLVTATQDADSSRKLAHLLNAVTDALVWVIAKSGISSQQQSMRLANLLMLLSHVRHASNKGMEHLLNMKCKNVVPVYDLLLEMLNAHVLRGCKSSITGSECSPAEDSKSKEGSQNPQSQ
Efficacy [1],Emax [2],Emax [3],Efficacy (Estrogen receptor beta),Efficacy [4],EC50 [5],SMILES
0%,62%,0%,20%,0%,> 10 µM,CN(Cc1cccc(C(=O)O)c1)c1ccc(OCc2c(-c3c(Cl)cccc3Cl)noc2C2CC2)nc1C(F)(F)F
0%,60%,0%,0%,0%,> 10 µM,CC(C)c1onc(-c2c(Cl)cccc2Cl)c1COc1ccc(N(C)Cc2ccc(C(=O)O)cc2)c(C(F)(F)F)n1
0%,67%,0%,0%,0%,> 10 µM,CN(Cc1ccc(C(=O)O)cc1)c1ccc(OCc2c(-c3c(Cl)cccc3Cl)noc2C2CC2)nc1C(F)(F)F
